Measured values reported in the NIST ThermoML archive (doi:10.1016/j.fluid.2013.07.015).
± gives the expanded uncertainty stated by the source.

Experiments:
[1] = Liquid; for mass density: 293.15 K, 101.33 kPa, Vibrating tube method; for Normal boiling temperature: Closed cell (Static) method
[2] = refractive index (Na D-line) (dimensionless); conditions: 298.15 K; 101.33 kPa; Liquid; Standard Abbe refractometry

mass density [1] [kg/m3] | Normal boiling temperature [1] [°C] | refractive index [2] | SMILES
1044.3 ± 0.96 | 117.1 ± 1.1 | 1.37104 ± 0.00052 | CC(=O)O [acetic acid]
881.3 ± 0.74 | 187.2 ± 1.1 | 1.41123 ± 0.00052 | CCCCCCC(=O)OCC [ethyl heptanoate]
999.9 ± 0.24 | 100.1 ± 1 | 1.33244 ± 0.00033 | O [water]
1218.5 ± 1.4 | 101.1 ± 1.1 | 1.3721 ± 0.00052 | O=CO [formic acid]
